In patent US20120190669A1, “OXINDOLE COMPOUNDS” (CYLENE PHARMACEUTICALS, INC., priority 2008, published 2012) one finds IC50 data, which are given here for ten compounds.

Read-outs that look alike come from different tables or passages of the source. Bounds are passed on as bounds.

Assay [1] concerns the target recombinant PIM-1 (Homo sapiens, UniProt P11309). In words: PIM-1 kinase assay (radiometric, 15 uM ATP, DMSO 4%). Format: biochemical. The settings on record: Table 4; 15 um ATP; read-out: PIM1: IC50 (15 um ATP).
Assay [2] deals with K-562. In words: Alamar Blue cell proliferation assay, K-562. Format: cell-based. The settings on record: Homo sapiens, K562, Table 4, read-out: AB: K-562. The protocol: (§1) A representative cell-proliferation assay protocol using Alamar Blue dye (stored at 4° C., use 20 ul per well) is described hereafter.
(§2) 96-Well Plate Setup and Compound Treatment
(§3) a. Split and trypsinize cells.
(§4) b. Count cells using hemocytometer.
(§5) c. Plate 4,000-5,000 cells per well in 100 μl of medium and seed into a 96-well plate according to the following plate layout. Add cell culture medium only to wells B10 to B12. Wells B1 to B9 have cells but no compound added.
(§6) d. Add 100 μl of 2× drug dilution to each well in a concentration shown in the plate layout above. At the same time, add 100 μl of media into the control wells (wells 1310 to B12). Total volume is 200 μl/well.
(§7) e. Incubate four (4) days at 37° C., 5% CO2 in a humidified incubator.
(§8) f. Add 20 μl Alamar Blue reagent to each well.
(§9) g. Incubate for four (4) hours at 37° C., 5% CO2 in a humidified incubator.
(§10) h. Record fluorescence at an excitation wavelength of 544 nm and emission wavelength of 590 nm using a microplate reader.
(§11) In the assays, cells are cultured with a test compound for approximately four days, the dye is then added to the cells and fluorescence of […] dye is detected after approximately four hours. Different types of cells can be utilized in the assays (e.g., HCT-116 human colorectal carcinoma cells, PC-3 human prostatic cancer cells and MiaPaca human pancreatic carcinoma cells).

Assay [3] concerns MiaPaca human pancreatic carcinoma cells. In words: Alamar Blue cell proliferation assay, MiaPaCa. Format: cell-based. Particulars: MIA PaCa-2, Table 4, read-out: AB: MiaPaCa. The protocol:
as §1, §2, §3, §4, §5, §6, §7, §8, §9, §10, §11

Assay [4] deals with PC-3 human prostatic cancer cells. Briefly: Alamar Blue cell proliferation assay, PC3. Format: cell-based. The settings on record: Table 4, read-out: AB: PC3. On the procedure: as §1, §2, §3, §4, §5, §6, §7, §8, §9, §10, §11
For orientation: Resazurin is reduced to fluorescent resorufin, in cell work by metabolically active cells.

In assay [5] the test system is MV-4-11. In words: Alamar Blue cell proliferation assay, MV-4-11. Format: cell-based. Particulars: Homo sapiens, MV4-11, Table 4, read-out: AB: MV-4-11. The protocol: as §1, §2, §3, §4, §5, §6, §7, §8, §9, §10, §11
The subject of assay [6] is THP-1. In words: Alamar Blue cell proliferation assay, THP-1. In kind it is cell-based. The settings on record: Homo sapiens, Table 4, read-out: AB: THP-1. On the procedure:
as §1, §2, §3, §4, §5, §6, §7, §8, §9, §10, §11

Assay [7] has as its system phospho FLT3. In words: phospho FLT3 cell-based data. The settings on record: Table 4.
Assay [8] has as its system phospho BAD. In words: phospho BAD cell-based data. The settings on record: Table 4.
Assay [9] deals with recombinant human PIM2 (Homo sapiens, UniProt Q9P1W9). In words: PIM-2 assay (radiometric). Format: biochemical. The protocol: Test compounds dissolved and diluted in DMSO ([…]) were added to a reaction mixture comprising […] of 5× Reaction Buffer (40 mM MOPS pH 7.0, 5 mM EDTA), […] of recombinant human PIM2 solution (4 ng PIM-2 dissolved in dilution buffer (20 mM MOPS pH 7.0; EDTA 1 mM; 5% Glycerol; 0.01% Brij 35; […]; […] 2-mercaptoethanol; 1 mg/ml BSA)) and 8 ul of water. Reactions were initiated by the addition of 10 ul of ATP Solution (49% (15 mM MgCl2; 75 uM ATP) 1% ([γ-33P]ATP: Stock 1 mCi/100 μl; 3000 Ci/mmol (Perkin Elmer)) and 10 ul of substrate peptide solution ([…], dissolved in water at a concentration of 1 mM), Reactions were maintained for 10 min at 30° C. The reactions were quenched with 100 ul of 0.75% Phosphoric acid, then transferred to and filtrered through a Phosphocellulose filter plate (Millipore, MSPH-N6B-50). After washing each well 4 times with 0.75% Phosphoric acid, scintillation fluid (20 uL) was added to each well and the residual radioactivity was measured using a Wallac […] counter.
Sequence of recombinant human PIM2 (Q9P1W9 whole entry): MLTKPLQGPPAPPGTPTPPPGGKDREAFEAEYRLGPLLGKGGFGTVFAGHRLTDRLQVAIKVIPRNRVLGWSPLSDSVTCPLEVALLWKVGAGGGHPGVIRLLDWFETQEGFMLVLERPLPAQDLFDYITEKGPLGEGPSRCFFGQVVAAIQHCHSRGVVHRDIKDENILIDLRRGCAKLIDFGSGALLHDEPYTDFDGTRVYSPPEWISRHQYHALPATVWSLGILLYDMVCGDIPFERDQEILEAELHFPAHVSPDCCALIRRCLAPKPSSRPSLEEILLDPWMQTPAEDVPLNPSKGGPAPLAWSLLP

Assay [10] concerns the target T1, recombinant human FLT-3 (Homo sapiens, UniProt P36888).
T1 sequence (P36888 27-993): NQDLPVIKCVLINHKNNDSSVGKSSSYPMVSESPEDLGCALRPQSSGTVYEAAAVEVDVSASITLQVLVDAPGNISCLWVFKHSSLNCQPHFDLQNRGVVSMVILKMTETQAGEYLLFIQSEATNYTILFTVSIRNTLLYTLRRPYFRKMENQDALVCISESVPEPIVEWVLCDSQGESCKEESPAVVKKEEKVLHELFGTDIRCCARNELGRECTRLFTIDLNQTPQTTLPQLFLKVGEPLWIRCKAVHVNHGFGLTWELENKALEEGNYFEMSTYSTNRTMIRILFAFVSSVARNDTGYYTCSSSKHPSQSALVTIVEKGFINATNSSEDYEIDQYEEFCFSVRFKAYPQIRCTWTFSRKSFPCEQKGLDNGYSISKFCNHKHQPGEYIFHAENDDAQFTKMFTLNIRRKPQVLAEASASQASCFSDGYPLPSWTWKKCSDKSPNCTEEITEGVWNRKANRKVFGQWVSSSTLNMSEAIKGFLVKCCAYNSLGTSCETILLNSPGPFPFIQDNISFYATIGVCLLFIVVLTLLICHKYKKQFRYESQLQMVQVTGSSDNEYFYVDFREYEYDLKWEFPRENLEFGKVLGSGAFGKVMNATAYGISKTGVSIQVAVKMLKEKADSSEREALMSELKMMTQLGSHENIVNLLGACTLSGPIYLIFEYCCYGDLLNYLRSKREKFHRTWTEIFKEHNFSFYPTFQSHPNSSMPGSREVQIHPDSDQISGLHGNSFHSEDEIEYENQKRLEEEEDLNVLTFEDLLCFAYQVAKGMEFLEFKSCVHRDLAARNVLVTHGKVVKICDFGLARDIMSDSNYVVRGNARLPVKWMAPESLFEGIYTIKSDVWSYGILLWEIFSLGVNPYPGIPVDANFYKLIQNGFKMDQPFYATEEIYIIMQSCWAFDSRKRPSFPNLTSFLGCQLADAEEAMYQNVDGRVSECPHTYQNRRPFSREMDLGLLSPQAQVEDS
In words: FLT-3 kinase activity, cell free in vitro assay. Format: biochemical. The settings on record: Table 7; 10 uM ATP; read-out: FLT3_RB: IC50.

Assay [11] has as its target T2, Pim-3 (h) (Homo sapiens, UniProt Q86V86).
T2 construct: purchased Millipore (printed 'Millopore'; assay run as a service at the vendor)
In words: PIM-3 assay run at Millipore. Format: biochemical. The settings on record: Table 8; read-out: PIM3 IC50. On the procedure: The PIM-3 assay was run at Millopore. The following is the assay as described in the Millopore protocol guide. […] (specific activity approx. 500 cpm/pmol, concentration as required). The reaction is initiated by the addition of the MgATP mix. After incubation for 40 minutes at room temperature, the reaction is stopped by the addition of 5 μL of a 3% phosphoric acid solution. 10 μL of the reaction is then spotted onto a P30 filtermat and washed three times for 5 minutes in 75 mM phosphoric acid and once in methanol prior to drying and scintillation counting.

Setting [12] is: Table 6, 15 μm ATP, read-out: PIM2: IC50 (15 μm ATP).

Sequence of recombinant PIM-1 (P11309 whole entry): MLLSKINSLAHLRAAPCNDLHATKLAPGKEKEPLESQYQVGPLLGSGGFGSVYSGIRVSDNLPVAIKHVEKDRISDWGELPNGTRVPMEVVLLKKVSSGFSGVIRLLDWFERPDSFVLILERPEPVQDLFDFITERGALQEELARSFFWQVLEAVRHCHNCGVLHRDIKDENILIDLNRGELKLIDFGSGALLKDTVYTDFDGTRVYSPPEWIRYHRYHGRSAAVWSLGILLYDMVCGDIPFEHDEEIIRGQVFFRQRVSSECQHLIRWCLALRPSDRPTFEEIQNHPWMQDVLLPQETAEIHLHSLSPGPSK

On to `O=C1Nc2ccc(Cl)cc2/C1=C\c1ccc(-c2cccc(C(=O)NCCN(CCO)CCO)c2)o1` [drawing 238], for which the IC50 in [1] is 81 nM; in [2] it was 1610 nM; in assay [3], over 30000 nM; in assay [4], over 30000 nM; in [5], 288 nM; in assay [6], 2900 nM. For the same compound, the IC50 in assay [7] is over 10000 nM; in assay [8], 609 nM. For `C/C(=C1\C(=O)Nc2ccc(Cl)cc21)c1ccc(-c2ccc(C(=O)N3CCCN(C)CC3)cc2)o1` [drawing 258], the IC50 in assay [9] (setting [12]) was under 1000 nM. For `CN1CCCN(C(=O)c2ccc(-c3ccc(/C=C4/C(=O)Nc5ccc(Cl)cc54)o3)cc2)CC1` [drawing 259], in assay [9] (setting [12]), the IC50 was under 1000 nM. For the compound `CCN(CC)CCNC(=O)c1ccc(-c2ccc(/C=C3/C(=O)Nc4ccc(Cl)cc43)o2)cc1` [drawing 260], the IC50 in assay [9] (setting [12]) was under 1000 nM. `O=C1Nc2ccccc2/C1=C\c1ccc(-c2ccc(Cl)c(C(=O)NCCN3CCCC3)c2)o1` [drawing 261]: the IC50 in [10] was found to be 211 nM. Take `O=C1Nc2ccc(F)cc2/C1=C\c1ccc(-c2cccc(C(=O)NC3CC3)c2)o1` [drawing 263]: the IC50 in assay [10] was 306 nM. As to `O=C1Nc2ccc(F)cc2/C1=C\c1ccc(-c2cccc(C(=O)NCc3ccncc3)c2)o1` [drawing 264], the IC50 in assay [10] is 147 nM. With `Cn1cncc1CNC(=O)c1cccc(-c2ccc(/C=C3/C(=O)Nc4ccc(F)cc43)o2)c1` [drawing 265], the IC50 in [10] came out at 100 nM. For the compound `C/C(=C1\C(=O)Nc2ccc(Cl)cc21)c1ccc(-c2ccc(C(=O)N3CCCN(C)CC3)cc2)o1` [drawing 336], the IC50 is under 500 nM in assay [9] (Table 8, read-out: PIM2 IC50) and under 1000 nM in [11]. Turning to `CN1CCCN(C(=O)c2ccc(-c3ccc(/C=C4/C(=O)Nc5ccc(Cl)cc54)o3)cc2)CC1` [drawing 337], the IC50 is under 500 nM in assay [9] (Table 8, read-out: PIM2 IC50) and under 1000 nM in assay [11].
